Assays:
Pseudomonas aeruginosa [1] = experiment: Antibacterial activity against mutant isogenic efflux/IMP-1 expressing Pseudomonas aeruginosa MB9799 assessed as inhibition of bacterial growth in presence of IMI by absorbance based assay; format: functional
[2] = Inhibition of Metallo-beta-lactamase VIM-1 (unknown origin); parameters: species or system Bacteria
Klebsiella pneumoniae = experiment: Antibacterial activity against VIM-1 expressing Klebsiella pneumoniae IHMA599644 assessed as inhibition of bacterial growth in presence of IMI by absorbance based assay; format: functional
Pseudomonas aeruginosa [3] = experiment: Antibacterial activity against wildtype isogenic efflux/IMP-1 expressing Pseudomonas aeruginosa MB9798 assessed as inhibition of bacterial growth in presence of IMI by absorbance based assay; format: functional
[4] = Efflux ratio of MITC95 for antibacterial activity against wildtype isogenic efflux/IMP-1 expressing Pseudomonas aeruginosa MB9798 assessed as inhibition of bacterial growth in presence of IMI to MITC95 for antibacterial activity against mutant isogenic efflux/IMP-1 expressing Pseudomonas aeruginosa MB9799 assessed as inhibition of bacterial growth in presence of IMI; format: functional
Serratia marcescens = experiment: Antibacterial activity against IMP-1 expressing Serratia marcescens CL5741 assessed as inhibition of bacterial growth in presence of IMI by absorbance based assay; format: functional
Escherichia coli = experiment: Antibacterial activity against NDM-1 expressing Escherichia coli CLB30016 assessed as inhibition of bacterial growth in presence of IMI by absorbance based assay; format: functional
[5] = Inhibition of Metallo-beta-lactamase IMP-1 (unknown origin); parameters: species or system Bacteria
[6] = Toxicity in rat mast cells assessed as degranulation by measuring histamine release at >=33 microM; format: cell-based; conditions: mast cell
[7] = Toxicity in cardiovascular rat model assessed as increase in histamine release in plasma at 5 mg/kg, iv measured after >8 mins; format: organism-based; conditions: in vivo
[8] = Cmax in rat at 5 mg/kg, iv; format: ADME, organism-based; conditions: in vivo
[9] = molecular target: Metallo-beta-lactamase type 2 (Bacteria, UniProt C7C422); experiment: Inhibition of Metallo-beta-lactamase NDM-1 (unknown origin)
Sequence of Metallo-beta-lactamase type 2 (C7C422 whole entry): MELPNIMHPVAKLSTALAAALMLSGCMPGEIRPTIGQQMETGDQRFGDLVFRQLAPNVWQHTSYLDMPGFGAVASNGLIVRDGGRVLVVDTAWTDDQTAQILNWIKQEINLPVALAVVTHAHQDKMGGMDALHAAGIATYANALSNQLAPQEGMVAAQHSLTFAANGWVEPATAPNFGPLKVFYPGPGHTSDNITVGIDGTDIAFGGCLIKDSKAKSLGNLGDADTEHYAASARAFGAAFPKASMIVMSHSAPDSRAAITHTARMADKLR

[10] = Inhibition of Metallo-beta-lactamase VIM-2 (unknown origin); parameters: species or system Bacteria
[11] = Unbound fraction in rat plasma at 4 mg/kg, iv; format: ADME, organism-based
[12] = Volume of distribution at steady state in rat at 4 mg/kg, iv; format: ADME, organism-based; conditions: in vivo, read-out: Vdss
[13] = Toxicity in rat mast cells assessed as degranulation by measuring histamine release at >=100 microM; format: cell-based; conditions: mast cell
[14] = AUC in rat at 4 mg/kg, iv; format: ADME, organism-based; conditions: in vivo
[15] = Toxicity in rat assessed as adverse effect at 4 mg/kg, iv; format: organism-based; conditions: in vivo
[16] = MRT in rat at 4 mg/kg, iv; format: ADME, organism-based; conditions: in vivo
[17] = Cmax in rat at 4 mg/kg, iv; format: ADME, organism-based; conditions: in vivo
[18] = Clearance in rat at 4 mg/kg, iv; format: ADME, organism-based; conditions: in vivo
[19] = Toxicity in cardiovascular rat model assessed as increase in histamine release in plasma at 4 mg/kg, iv; format: organism-based; conditions: in vivo

SMILES | MITC95 (Pseudomonas aeruginosa [1]) | IC50 [2] | MITC95 (Klebsiella pneumoniae) | MITC95 (Pseudomonas aeruginosa [3]) | Ratio [4] | MITC95 (Serratia marcescens) | MITC95 (Escherichia coli) | IC50 [5] | IC50 [9] | IC50 [10] | also measured
NS(=O)(=O)c1cccc(-c2ccc(C3CCNCC3)cc2)c1-c1nn[nH]n1 | 1.56 µM | 19000 pM | 38 µM | 200 µM | 128 | 9 µM | 3 µM | 34000 pM |  |  | 
NS(=O)(=O)c1c(CC2CNC2)ccc(-c2ccc(C3CCNCC3)cc2)c1-c1nn[nH]n1 |  |  |  |  |  |  |  |  |  |  | Activity [6]: Toxic; Activity [7]: Toxic; Cmax [8]: 45 µM
Nc1nc2c(-c3ccc(S(=O)(=O)C4CCNCC4)c(S(N)(=O)=O)c3-c3nn[nH]n3)cccc2s1 | 1.56 µM | 260 pM | 6.25 µM | 1.56 µM | 1 | 3.13 µM | 3.13 µM | 460 pM | 120 pM | 400 pM | 
Cc1ccc(-c2ccc(S(=O)(=O)C3CNC3)c(S(N)(=O)=O)c2-c2nn[nH]n2)c2nc(N)[nH]c12 | 0.78 µM | 240 pM | 1.56 µM | 0.78 µM | 1 | 0.78 µM | 1.56 µM | 470 pM | 40 pM |  | 
CS(=O)(=O)c1ccc(-c2ccc(C3CCNCC3)cc2)c(-c2nnn[nH]2)c1S(N)(=O)=O | 0.78 µM | 130 pM | 3.13 µM | 6.25 µM | 8 | 3.13 µM | 3.13 µM | 100 pM |  | 2600 pM | 
NS(=O)(=O)c1c(C(F)(F)F)ccc(-c2ccc(C3CCNCC3)cc2)c1-c1nn[nH]n1 | 0.78 µM | 300 pM | 1.9 µM | 50 µM | 64 | 0.2 µM | 0.7 µM | 1200 pM | 900 pM |  | 
NS(=O)(=O)c1c(S(=O)(=O)C2CNC2)ccc(-c2ccc(C3CCNCC3)cc2)c1-c1nn[nH]n1 | 0.78 µM | 200 pM | 1.56 µM | 0.78 µM | 1 | 1.56 µM | 0.78 µM | 210 pM |  | 2800 pM | fraction unbound [11]: 0.55; Vd [12]: 0.34 L/kg; Activity [13]: Toxic; AUC [14]: 15.6 µM·h; Activity [15]: Non-toxic; MRT [16]: 40.2 min; Cmax [17]: 35.7 µM; clearance [18]: 8.5 mL/min/kg; Activity [19]: Non-toxic

— ChEMBL document CHEMBL6083247, “Discovery of sulfone containing metallo-β-lactamase inhibitors with reduced bacterial cell efflux and histamine release issues” (Bioorg Med Chem Lett, 2024)
